# Measurements reported in patent US20100129910A1, “Cell matrix related compositions and their use for generating embryoid bodies” (priority 2008, published 2010).
# Experiments:
# hESC = conditions: cited from earlier work
# hES cells = test: ES cell aggregation under different conditions (EB formation by centrifugation, Example 1); type: cell-based, human; conditions: inducer at 0.1 mg/ml (each protein)
# Source text: Our investigations have shown that two elements when added to the hESC suspensions are sufficient to allow re-aggregation in the absence of MEF or other feeder cells. These two elements are the extracellular matrix proteins laminin and nidogen (Table 1 and FIG. 1A).
# By adding human laminin and nidogen complex into suspensions of pure hES cells, cells or products of non-human origin can be completely avoided in the re-aggregation of hESC and the subsequent generation of EB. Laminin binds to the surface of hES cells through the specific receptor integrin α6 β1. […] Nidogen cross-links large molecules of laminin attached to the hES cell receptors into complex three-dimensional structures. When a laminin-nidogen mix is added to a hES cell suspension, highly viable EBs can be generated from as little as 100 hES cells (FIG. 1B).
# Using our method, undifferentiated hES cells are prepared as a single cell suspension, plated (at the desired number of cells) into low attachment round bottom 96 well plates and then re-aggregated to form EBs using centrifugation in the presence of the laminin-nidogen complex. hEBs formed in this way have excellent viability, are of uniform size and contain all three germ layers (ectoderm, mesoderm and endoderm)—that can in turn be induced to generate more differentiated tissue. The simplicity of this method of hEB generation reduces the variability inherent in culture systems that require cellular components (such as MEFs) or other complex media. The simplicity of the system also facilitates the testing of variables that affect differentiation of hEB into different tissue types and improves the quantitation of any effects seen. This system may also be used for generation of chimeric EBs when different cell types (e.g., hES cells transduced with fluorescent tag can be mixed with non-transduced hES cells and re-aggregated into one EB with subsequent tracking of progenies arising from the labeled cells.
# hESC lines H1 and H9 = test: hESC re-aggregation and EB formation, MEF-free modified spin EB method (Example 2); type: cell-based, human
# Method: To generate MEF-free EBs, a modification of the “spin EB” method was used (8, 9). Colonies of H1 and H9 hESC (WiCell Inc) (passage 36-50) were cut into uniformed sized pieces using StemProEZPassage tool, transferred onto 6-well plates coated for 1 hour with Matrigel (growth factor reduced, no phenol red; BD Bioscience), and cultured in MEF-conditioned hESC media supplemented with 4 ng/ml FGF2. Pre-culture on Matrigel increases aggregation capacity of hESC (data not shown). After 24 hours, colonies were digested with Tryple Select into a single cell suspension, incubated with SSEA4 antibody, and SSEA4 positive cells sorted with FACS as described above. Before the sorting step 2-3% of the cells in suspension were represented by MEFs and 97-98% by hESC. After sorting, purity of hESC in the preparation was >99.9% as was measured with SSEA4 staining by FACS. These purified hESC were centrifuged at 1400 RPM and the resulting pellet was resuspended in previously described differentiation media, transferred into low attachment round-bottom 96 well culture plates (Nunc, Rochester, N.Y.) and centrifuged at 1400 RPM for 7 min with or without inducers of aggregation. To test the effects on cell aggregation, a mixture of ECMs in the form of Matrigel (5, 25, 100, 200, μg/ml) a solubilized basement membrane preparation extracted from the Engelbreth-Holm-Swarm (EHS) mouse sarcoma; murine laminin-111 and nidogen-1 complex (5, 25, 100, 200 μg/ml) from EHS sarcoma; or purified human collagen IV (1, 5, 25, 50 μg/ml) (all from BD Bioscience); human laminin-511 (1,5, 25, 50 μg/ml) (Sigma-Aldrich) and human nidogen-1 (1,5, 25, 50 μg/ml) (R&D systems) were added to the cell suspension prior to centrifugation. For directed differentiated of the EBs, differentiation media was supplemented with human vascular endothelial growth factor (VEGF), FGF2, bone morphogenic protein 4 (BMP4), or Wnt3a (all at 10 ng/ml; R&D systems) or FCS (Omega Scientific Inc. Tarzana, Calif.), prior to the final centrifugation step dependent upon experimental design.
# Lower concentrations were not sufficient to aggregate all cells in the well. Higher concentrations of Matrigel increased viscosity and blocked efficient pellet formation during centrifugation.
# To further dissect the mechanisms of hESC aggregation, the key ECM proteins were tested individually at a range of concentrations with regards to their capacity to assemble dispersed hESC into EBs. […] Thus, the presence of both laminin (either 111 or 511) and nidogen-1 was required for hESC aggregation.
# LN-EBs from hESC = test: Germ layer differentiation of LN-EBs (immunohistochemistry for nestin, CD34, alpha-fetoprotein); type: cell-based, human
# Method: FIG. 4: Generation of ectodermal, mesodermal and endodermal derivatives in the “LN-EB” system. “LN-EBs” were generated with the laminin-nidogen complex and in the presence of media designed for specific germ layer differentiation. A. For induction of ectodermal derivatives, serum-free media was supplemented with Wnt3a (10 ng/ml); B. Addition of BMP4, FGF2, VEGF (all 10 ng/ml) to serum-free medium induced formation of endodermal and mesodermal derivatives. C. Addition of 10% FCS, with no exogenous growth factors, induced synchronous generation of the all three germ layers. D. Standard EBs cultured in medium supplemented with 10% FCS. E. Control EBs cultured in serum-free media with no exogenous growth factors. F. No primary antibody control of immunostaining. Immunohistochemical detection of ectoderm, mesoderm and endoderm formation was assessed using antibodies for nestin (left column), CD34 (middle column) and alpha-fetoprotein (right column) respectively. Antigen expression is shown in brown color. Nuclei are stained with hematoxylin (blue). Magnification: 200×. […]
# To generate MEF-free EBs, a modification of the “spin EB” method was used (8, 9). […] After sorting, purity of hESC in the preparation was >99.9% as was measured with SSEA4 staining by FACS. […]
# [1] = added individually as single agents at a range of concentrations
Molecule,Aggregation (hES cells),hESC aggregation (hESC lines H1 and H9; [1]),further results
C[C@@H](N)[C@H]1CC[C@H](C(=O)Nc2ccncc2)CC1 [Y-27632],,,aggregation and EB formation of dissociated hESC (hESC; 10 μM): aggregate and form EBs; survival of hESC after dissociation to single cells (hESC): promote the survival
Collagen IV: extracellular matrix protein collagen IV,−,,
Fibronectin,−,,
Laminin,+ (+ means very little aggregation),,
human collagen-IV: purified human collagen IV (BD Bioscience) [reference compound],,No aggregation,
"human laminin-511 complexed with human nidogen-1: ultrapure human laminin-511 complexed with human nidogen-1, ratio laminin to nidogen 9:1",,,"hESC aggregation (hESC lines H1 and H9; laminin-511 9-22.5 μg/ml with nidogen-1 1-2.5 μg/ml, ratio laminin to nidogen 9:1): robust aggregation"
human laminin-511: human laminin-α5β1γ1 heterotrimer (Sigma-Aldrich),,minimal aggregation,
murine laminin-111-nidogen-1 complex: murine laminin-111 and nidogen-1 complex from EHS sarcoma,,,"hESC aggregation (hESC lines H1 and H9; 100-200 μg/ml, MEF-free single cell suspension, after centrifugation): robust aggregation"
"nidogen-1: human nidogen-1 linker protein (R&D systems) (protein, UniProt P14543 29-1247, looked up) Nidogen-1: LSRQELFPFGPGQGDLELEDGDDFVSPALELSGALRFYDRSDIDAVYVTTNGIIATSEPPAKESHPGLFPPTFGAVAPFLADLDTTDGLGKVYYREDLSPSITQRAAECVHRGFPEISFQPSSAVVVTWESVAPYQGPSRDPDQKGKRNTFQAVLASSDSSSYAIFLYPEDGLQFHTTFSKKENNQVPAVVAFSQGSVGFLWKSNGAYNIFANDRESVENLAKSSNSGQQGVWVFEIGSPATTNGVVPADVILGTEDGAEYDDEDEDYDLATTRLGLEDVGTTPFSYKALRRGGADTYSVPSVLSPRRAATERPLGPPTERTRSFQLAVETFHQQHPQVIDVDEVEETGVVFSYNTDSRQTCANNRHQCSVHAECRDYATGFCCSCVAGYTGNGRQCVAEGSPQRVNGKVKGRIFVGSSQVPIVFENTDLHSYVVMNHGRSYTAISTIPETVGYSLLPLAPVGGIIGWMFAVEQDGFKNGFSITGGEFTRQAEVTFVGHPGNLVIKQRFSGIDEHGHLTIDTELEGRVPQIPFGSSVHIEPYTELYHYSTSVITSSSTREYTVTEPERDGASPSRIYTYQWRQTITFQECVHDDSRPALPSTQQLSVDSVFVLYNQEEKILRYALSNSIGPVREGSPDALQNPCYIGTHGCDTNAACRPGPRTQFTCECSIGFRGDGRTCYDIDECSEQPSVCGSHTICNNHPGTFRCECVEGYQFSDEGTCVAVVDQRPINYCETGLHNCDIPQRAQCIYTGGSSYTCSCLPGFSGDGQACQDVDECQPSRCHPDAFCYNTPGSFTCQCKPGYQGDGFRCVPGEVEKTRCQHEREHILGAAGATDPQRPIPPGLFVPECDAHGHYAPTQCHGSTGYCWCVDRDGREVEGTRTRPGMTPPCLSTVAPPIHQGPAVPTAVIPLPPGTHLLFAQTGKIERLPLEGNTMRKTEAKAFLHVPAKVIIGLAFDCVDKMVYWTDITEPSIGRASLHGGEPTTIIRQDLGSPEGIAVDHLGRNIFWTDSNLDRIEVAKLDGTQRRVLFETDLVNPRGIVTDSVRGNLYWTDWNRDNPKIETSYMDGTNRRILVQDDLGLPNGLTFDAFSSQLCWVDAGTNRAECLNPSQPSRRKALEGLQYPFAVTSYGKNLYFTDWKMNSVVALDLAISKETDAFQPHKQTRLYGITTALSQCPQGHNYCSVNNGGCTHLCLATPGSRTCRCPDNTLGVDCIEQK",,minimal aggregation,
"Wnt3a: morphogen Wnt3a, 10 ng/ml (R&D systems) (protein, UniProt P56704 19-352, looked up) Protein Wnt-3a: SYPIWWSLAVGPQYSSLGSQPILCASIPGLVPKQLRFCRNYVEIMPSVAEGIKIGIQECQHQFRGRRWNCTTVHDSLAIFGPVLDKATRESAFVHAIASAGVAFAVTRSCAEGTAAICGCSSRHQGSPGKGWKWGGCSEDIEFGGMVSREFADARENRPDARSAMNRHNNEAGRQAIASHMHLKCKCHGLSGSCEVKTCWWSQPDFRAIGDFLKDKYDSASEMVVEKHRESRGWVETLRPRYTYFKVPTERDLVYYEASPNFCEPNPETGSFGTRDRTCNVSSHGIDGCDLLCCGRGHNARAERRREKCRCVFHWCCYVSCQECTRVYDVHTCK",,,"germ layer derivatives suppressed in LN-EBs (LN-EBs from hESC; serum-free medium, growth factors 10 ng/ml): formation of meso-endodermal derivatives labeled with CD34 and alpha-fetoprotein respectively was almost completely abolished; germ layer derivatives formed in LN-EBs (LN-EBs from hESC; supplement in medium (growth factors 10 ng/ml serum-free, or 10% FCS), day 15): neuro-ectodermal epithelial cells that expressed nestin and formed solid neural tube-like structures were efficiently induced"
